Laboratory results as given in PubChem BioAssay AID2060484 (Molecular Pharmacology Branch, DTP, NCI, 2025).

System: SUM149PT spheroids with HUVEC/MSC, viability
Assay: Anticancer human tumor SUM149PT cell line growth inhibition [GQUAD];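 further: spheroids exposed to drugs for seven days before readout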;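 on viability, T/C: percent viability relative to DMSO vehicle control taken as 100%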
Conditions: for IC50: curve of first compound; for viability, T/C: stronger effect = lower value
Method in brief: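 Tumor cells were grown as complex spheroids with HUVEC endothelial cells and mesenchymal stem cells as stroma. G-quadruplex stabilizers were combined with targeted agents over half-log dilutions from near the clinical Cmax, or from 10 microM.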

[1] = second compound 0.0316 µM, first compound 0.0316 µM
[2] = second compound 0.0316 µM, first compound 0.1 µM
[3] = second compound 0.0316 µM, first compound 0.316 µM
[4] = second compound 0.0316 µM, first compound 1 µM
[5] = second compound 0.0316 µM, first compound 3.16 µM
[6] = second compound 0.0316 µM, first compound 10 µM
[7] = second compound 0.1 µM, first compound 0.0316 µM
[8] = second compound 0.1 µM, first compound 0.1 µM
[9] = second compound 0.1 µM, first compound 0.316 µM
[10] = second compound 0.1 µM, first compound 1 µM
[11] = second compound 0.1 µM, first compound 3.16 µM
[12] = second compound 0.1 µM, first compound 10 µM
[13] = second compound 0.316 µM, first compound 0.0316 µM
[14] = second compound 0.316 µM, first compound 0.1 µM
[15] = second compound 0.316 µM, first compound 0.316 µM
[16] = second compound 0.316 µM, first compound 1 µM
[17] = second compound 0.316 µM, first compound 3.16 µM
[18] = second compound 0.316 µM, first compound 10 µM
[19] = second compound 1 µM, first compound 0.0316 µM
[20] = second compound 1 µM, first compound 0.1 µM
[21] = second compound 1 µM, first compound 0.316 µM
[22] = second compound 1 µM, first compound 1 µM
[23] = second compound 1 µM, first compound 3.16 µM
[24] = second compound 1 µM, first compound 10 µM
[25] = second compound 3.16 µM, first compound 0.0316 µM
[26] = second compound 3.16 µM, first compound 0.1 µM
[27] = second compound 3.16 µM, first compound 0.316 µM
[28] = second compound 3.16 µM, first compound 1 µM
[29] = second compound 3.16 µM, first compound 3.16 µM
[30] = second compound 3.16 µM, first compound 10 µM
[31] = second compound 10 µM, first compound 0.0316 µM
[32] = second compound 10 µM, first compound 0.1 µM
[33] = second compound 10 µM, first compound 0.316 µM
[34] = second compound 10 µM, first compound 1 µM
[35] = second compound 10 µM, first compound 3.16 µM
[36] = second compound 10 µM, first compound 10 µM

CC(C)n1c(=O)n(C)c2cnc3cc(F)c(-c4ccc(OCCCN5CCCCC5)nc4)cc3c21 + CN(C)c1ccc(Nc2c3ccc(NC(=O)CCN4CCCC4)cc3nc3cc(NC(=O)CCN4CCCC4)ccc23)cc1
IC50 (second compound 0.0316 µM): > 10000 nM
IC50 (second compound 0.1 µM): > 10000 nM
IC50 (second compound 0.316 µM): > 10000 nM
IC50 (second compound 1 µM): > 10000 nM
IC50 (second compound 3.16 µM): 8830 nM
IC50 (second compound 10 µM): 1180 nM
viability, T/C [1]: 101%
viability, T/C [2]: 88.5%
viability, T/C [3]: 95%
viability, T/C [4]: 99.9%
viability, T/C [5]: 95.8%
viability, T/C [6]: 68.2%
viability, T/C [7]: 98.6%
viability, T/C [8]: 90.2%
viability, T/C [9]: 96.3%
viability, T/C [10]: 95.7%
viability, T/C [11]: 96.5%
viability, T/C [12]: 64.2%
viability, T/C [13]: 94%
viability, T/C [14]: 79.4%
viability, T/C [15]: 86.6%
viability, T/C [16]: 95.8%
viability, T/C [17]: 93%
viability, T/C [18]: 61.5%
viability, T/C [19]: 74.8%
viability, T/C [20]: 83.4%
viability, T/C [21]: 87.4%
viability, T/C [22]: 89.7%
viability, T/C [23]: 81.2%
viability, T/C [24]: 57%
viability, T/C [25]: 84.7%
viability, T/C [26]: 80.9%
viability, T/C [27]: 73%
viability, T/C [28]: 72.2%
viability, T/C [29]: 70.7%
viability, T/C [30]: 46.6%
viability, T/C [31]: 75.3%
viability, T/C [32]: 71.6%
viability, T/C [33]: 61.9%
viability, T/C [34]: 52.1%
viability, T/C [35]: 38.8%
viability, T/C [36]: 24.8%

CC1COCCN1c1cc(-c2ccnn2C)c2ccnc(-c3ccn[nH]3)c2n1 (stereo not drawn) + CN(C)c1ccc(Nc2c3ccc(NC(=O)CCN4CCCC4)cc3nc3cc(NC(=O)CCN4CCCC4)ccc23)cc1
IC50 (second compound 0.0316 µM): 93.3 nM
IC50 (second compound 0.1 µM): 92.7 nM
IC50 (second compound 0.316 µM): 91.3 nM
IC50 (second compound 1 µM): 89.7 nM
IC50 (second compound 3.16 µM): 88.4 nM
IC50 (second compound 10 µM): 65.7 nM
viability, T/C [1]: 96.3%
viability, T/C [2]: 46.9%
viability, T/C [3]: 29.1%
viability, T/C [4]: 23.2%
viability, T/C [5]: 38.2%
viability, T/C [6]: 28%
viability, T/C [7]: 87.8%
viability, T/C [8]: 47.3%
viability, T/C [9]: 29.6%
viability, T/C [10]: 29.4%
viability, T/C [11]: 30%
viability, T/C [12]: 36.1%
viability, T/C [13]: 87.5%
viability, T/C [14]: 46.8%
viability, T/C [15]: 26%
viability, T/C [16]: 26.5%
viability, T/C [17]: 28.1%
viability, T/C [18]: 29.2%
viability, T/C [19]: 82.6%
viability, T/C [20]: 46.6%
viability, T/C [21]: 26.4%
viability, T/C [22]: 23.7%
viability, T/C [23]: 26.8%
viability, T/C [24]: 29.4%
viability, T/C [25]: 79%
viability, T/C [26]: 46.5%
viability, T/C [27]: 20.7%
viability, T/C [28]: 23.5%
viability, T/C [29]: 25.6%
viability, T/C [30]: 24.2%
viability, T/C [31]: 69.9%
viability, T/C [32]: 38%
viability, T/C [33]: 28.9%
viability, T/C [34]: 24.9%
viability, T/C [35]: 25.4%
viability, T/C [36]: 21.9%

CC1COCCN1c1cc(C2(S(C)(=N)=O)CC2)nc(-c2ccnc3[nH]ccc23)n1 (stereo not drawn) + CN(C)c1ccc(Nc2c3ccc(NC(=O)CCN4CCCC4)cc3nc3cc(NC(=O)CCN4CCCC4)ccc23)cc1
IC50 (second compound 0.0316 µM): 2650 nM
IC50 (second compound 0.1 µM): 2760 nM
IC50 (second compound 0.316 µM): 2310 nM
IC50 (second compound 1 µM): 2230 nM
IC50 (second compound 3.16 µM): 1900 nM
IC50 (second compound 10 µM): 1920 nM
viability, T/C [1]: 106%
viability, T/C [2]: 91.5%
viability, T/C [3]: 97.2%
viability, T/C [4]: 80.9%
viability, T/C [5]: 44.2%
viability, T/C [6]: 29.4%
viability, T/C [7]: 97.8%
viability, T/C [8]: 103%
viability, T/C [9]: 81.5%
viability, T/C [10]: 89.4%
viability, T/C [11]: 44.7%
viability, T/C [12]: 25.2%
viability, T/C [13]: 90.3%
viability, T/C [14]: 90.4%
viability, T/C [15]: 83.2%
viability, T/C [16]: 74.7%
viability, T/C [17]: 40.4%
viability, T/C [18]: 29.6%
viability, T/C [19]: 90.4%
viability, T/C [20]: 82.7%
viability, T/C [21]: 77.5%
viability, T/C [22]: 69.5%
viability, T/C [23]: 41.1%
viability, T/C [24]: 22.5%
viability, T/C [25]: 84.2%
viability, T/C [26]: 90.7%
viability, T/C [27]: 86.1%
viability, T/C [28]: 69.7%
viability, T/C [29]: 34.3%
viability, T/C [30]: 23.4%
viability, T/C [31]: 95.8%
viability, T/C [32]: 81.4%
viability, T/C [33]: 88.6%
viability, T/C [34]: 67%
viability, T/C [35]: 36.9%
viability, T/C [36]: 24.9%

O=C(c1cc(Cc2n[nH]c(=O)c3ccccc23)ccc1F)N1CCN(C(=O)C2CC2)CC1 + CN(C)c1ccc(Nc2c3ccc(NC(=O)CCN4CCCC4)cc3nc3cc(NC(=O)CCN4CCCC4)ccc23)cc1
IC50 (second compound 0.0316 µM): > 10000 nM
IC50 (second compound 0.1 µM): > 10000 nM
IC50 (second compound 0.316 µM): > 10000 nM
IC50 (second compound 1 µM): > 10000 nM
IC50 (second compound 3.16 µM): > 10000 nM
IC50 (second compound 10 µM): > 10000 nM
viability, T/C [1]: 104%
viability, T/C [2]: 103%
viability, T/C [3]: 94.5%
viability, T/C [4]: 100%
viability, T/C [5]: 102%
viability, T/C [6]: 88.8%
viability, T/C [7]: 95%
viability, T/C [8]: 101%
viability, T/C [9]: 102%
viability, T/C [10]: 104%
viability, T/C [11]: 98%
viability, T/C [12]: 81.4%
viability, T/C [13]: 87.6%
viability, T/C [14]: 93.5%
viability, T/C [15]: 101%
viability, T/C [16]: 101%
viability, T/C [17]: 111%
viability, T/C [18]: 82%
viability, T/C [19]: 85.3%
viability, T/C [20]: 86.6%
viability, T/C [21]: 89.9%
viability, T/C [22]: 104%
viability, T/C [23]: 92.4%
viability, T/C [24]: 66.3%
viability, T/C [25]: 93.7%
viability, T/C [26]: 91%
viability, T/C [27]: 90.5%
viability, T/C [28]: 94.2%
viability, T/C [29]: 95.2%
viability, T/C [30]: 70.5%
viability, T/C [31]: 78.8%
viability, T/C [32]: 81.9%
viability, T/C [33]: 81.9%
viability, T/C [34]: 90.4%
viability, T/C [35]: 86.3%
viability, T/C [36]: 64.5%
